In patent publication US11104690B2, “Indazole derivatives useful as inhibitors of diacylglyceride O-acyltransferase 2” (Merck Sharp & Dohme Corp., priority 2016, dated 2021):

molecular target: Human DGAT2 (Homo sapiens (Human), UniProt Q96PD7); assay: DGAT2 Enzymatic Activity Assay (triolein formation, LC/MS/MS); type: biochemical; settings: hDGAT2 Sf-9 membrane prep; 25 μM diolein, 10 μM oleoyl-CoA; room temperature
Method in brief: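 Triolein product, measured by LC/MS/MS as a ratio to internal standard, gave % inhibition and 4-parameter IC50. Reaction: 25 μM diolein, 10 μM oleoyl-CoA, 10 ng/μL hDGAT2 Sf-9 membrane, 100 mM Tris.Cl pH 7.0, 20 mM MgCl2, 5% ethanol, room temperature.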

Chain of Human DGAT2 (Q96PD7 whole entry): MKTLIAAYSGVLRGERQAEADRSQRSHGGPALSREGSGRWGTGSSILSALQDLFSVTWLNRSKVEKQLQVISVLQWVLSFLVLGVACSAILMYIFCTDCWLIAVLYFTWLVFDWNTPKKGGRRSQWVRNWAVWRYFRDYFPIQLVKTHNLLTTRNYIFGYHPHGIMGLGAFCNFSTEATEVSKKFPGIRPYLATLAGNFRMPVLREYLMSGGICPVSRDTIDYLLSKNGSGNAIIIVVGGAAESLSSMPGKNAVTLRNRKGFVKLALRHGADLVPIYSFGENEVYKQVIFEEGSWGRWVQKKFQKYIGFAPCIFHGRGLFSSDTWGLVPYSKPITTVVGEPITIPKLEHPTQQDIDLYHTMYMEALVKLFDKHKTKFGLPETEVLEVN

Row | Structure (SMILES) | IC50
1 | CC1(NC(=O)c2ccc3c(-c4cccc(Cl)c4)nn(-c4ccc(F)cc4)c3c2)CCS(=O)(=O)C1 (single isomer, unassigned) [Example 158-A, 3-(3-chlorophenyl)-1-(4-fluorophenyl)-N-(3-methyl-1,1-dioxidotetrahydrothiophen-3-yl)-1H-indazole-6-carboxamide] | 31 nM
2 | O=C(NC1CCS(=O)(=O)C1)c1ccc2c(-c3ccc[n+]([O-])c3)nn(-c3ccc(F)cc3)c2c1 (single isomer, unassigned) [Example 166-A, 3-(6-((1,1-dioxidotetrahydrothiophen-3-yl)carbamoyl)-1-(4-fluorophenyl)-1H-indazol-3-yl)pyridine 1-oxide] | 843 nM
3 | CC1(NC(=O)c2ccc3c(-c4ccccc4Cl)nn(-c4ccc(Cl)cn4)c3c2)CCS(=O)(=O)C1 (single isomer, unassigned) [Example 171-A, 3-(2-Chlorophenyl)-1-(5-chloropyridin-2-yl)-N-(3-methyl-1,1-dioxidotetrahydrothiophen-3-yl)-1H-indazole-6-carboxamide] | 15 nM
4 | CC1(NC(=O)c2ccc3c(-c4ccccc4Cl)nn(-c4ccc(F)cn4)c3c2)CCS(=O)(=O)C1 (single isomer, unassigned) [Example 172-A] | 39 nM
5 | CC1(NC(=O)c2ccc3c(-c4ccccc4Cl)nn(-c4ccc(F)cn4)c3c2)CCS(=O)(=O)C1 (single isomer, unassigned) [Example 172-B, 3-(2-chlorophenyl)-1-(5-fluoropyridin-2-yl)-N-(3-methyl-1,1-dioxidotetrahydrothiophen-3-yl)-1H-indazole-6-carboxamide] | 56 nM
6 | O=C(NC1CCS(=O)(=O)C1)c1ccc2c(-c3ccccc3Cl)nn(-c3ccc(Cl)cn3)c2c1 (single isomer, unassigned) [Example 173-A, 3-(2-chlorophenyl)-1-(5-chloropyridin-2-yl)-N-(1,1-dioxidotetrahydrothiophen-3-yl)-1H-indazole-6-carboxamide] | 23 nM
7 | CC1(NC(=O)c2ccc3c(-c4ccccc4Cl)nn(-c4ccccn4)c3c2)CCS(=O)(=O)C1 (single isomer, unassigned) [Example 174-B, 3-(2-chlorophenyl)-N-(3-methyl-1,1-dioxidotetrahydrothiophen-3-yl)-1-pyridin-2-yl-1H-indazole-6-carboxamide] | 75 nM
8 | O=C(NC1CCS(=O)(=O)C1)c1ccc2c(-c3ccccc3Cl)nn(-c3ccccn3)c2c1 (single isomer, unassigned) [Example 175-A, 3-(2-chlorophenyl)-N-(1,1-dioxidotetrahydrothiophen-3-yl)-1-pyridin-2-yl-1H-indazole-6-carboxamide] | 338 nM
9 | CC1(NC(=O)c2ccc3c(-c4cccc(C#N)c4)nn(-c4ccc(F)cn4)c3c2)CCS(=O)(=O)C1 (single isomer, unassigned) [Example 178-B, 3-(3-cyanophenyl)-1-(5-fluoropyridin-2-yl)-N-(3-methyl-1,1-dioxidotetrahydrothiophen-3-yl)-1H-indazole-6-carboxamide] | 32 nM
10 | Cc1noc([C@H](NC(=O)c2ccc3c(-c4ccccc4Cl)nn(-c4ccc(F)cc4)c3c2)[C@H](C)O)n1 (stereo in doubt) [Example 48, 3-(2-chlorophenyl)-1-(4-fluorophenyl)-N-[(1R,2S)-2-hydroxy-1-(3-methyl-1,2,4-oxadiazol-5-yl)propyl]-1H-indazole-6-carboxamide] | 96 nM
11 | N#Cc1cccc(-c2nn(-c3ccc(F)cn3)c3cc(C(=O)N[C@H]4CCS(=O)(=O)C4)ccc23)c1 [177-B] | 86 nM
12 | C[C@@H](NC(=O)c1ccc2c(-c3ccccc3Cl)nn(-c3ccc(F)cc3)c2c1)c1ccc(C(F)(F)F)[n+]([O-])c1 [Example 3, 3-(2-chlorophenyl)-1-(4-fluorophenyl)-N-{(1R)-1-[1-oxido-6-(trifluoromethyl)pyridin-3-yl]ethyl}-1H-indazole-6-carboxamide] | 155 nM
13 | C[C@@H](NC(=O)c1ccc2c(-c3ccccc3Cl)nn(-c3ccc(F)cc3)c2c1)c1cnc(C(F)(F)F)nc1 [Example 4, 3-(2-chlorophenyl)-1-(4-fluorophenyl)-N-{(1R)-1-[2-(trifluoromethyl)pyrimidin-5-yl]ethyl}-1H-indazole-6-carboxamide] | 67 nM
14 | O=C(N[C@H](CO)c1ccc(C(F)(F)F)nc1)c1ccc2c(-c3ccccc3Cl)nn(-c3ccc(F)cc3)c2c1 [Example 5, 3-(2-chlorophenyl)-1-(4-fluorophenyl)-N-{(1S)-2-hydroxy-1-[6-(trifluoromethyl)pyridin-3-yl]ethyl}-1H-indazole-6-carboxamide] | 45 nM

Further compounds by falling IC50, results first:

Row | IC50 | Structure (SMILES)
15 | 469 nM | CC1(NC(=O)c2ccc3c(-c4ccnc(C(F)(F)F)c4)nn(-c4ccc(F)cc4)c3c2)CCS(=O)(=O)C1 (single isomer, unassigned) [Example 159-A, 1-(4-fluorophenyl)-N-(3-methyl-1,1-dioxidotetrahydrothiophen-3-yl)-3-[2-(trifluoromethyl)pyridin-4-yl]-1H-indazole-6-carboxamide]
16 | 252 nM | O=C(NC1CCS(=O)(=O)C1)c1ccc2c(-c3ccccc3Cl)nn(-c3ccc(F)cn3)c2c1 (single isomer, unassigned) [Example 176-A, 3-(2-chlorophenyl)-N-(1,1-dioxidotetrahydrothiophen-3-yl)-1-(5-fluoropyridin-2-yl)-1H-indazole-6-carboxamide]
17 | 157 nM | CC1(NC(=O)c2ccc3c(-c4ccccc4)nn(-c4ccc(F)cc4)c3c2)CCS(=O)(=O)C1 (single isomer, unassigned) [Example 162-A, 1-(4-fluorophenyl)-N-(3-methyl-1,1-dioxidotetrahydrothiophen-3-yl)-3-phenyl-1H-indazole-6-carboxamide]
18 | 71 nM | CC1(NC(=O)c2ccc3c(-c4ccccc4Cl)nn(-c4ccccn4)c3c2)CCS(=O)(=O)C1 (single isomer, unassigned) [Example 174-A, 3-(2-chlorophenyl)-N-(3-methyl-1,1-dioxidotetrahydrothiophen-3-yl)-1-pyridin-2-yl-1H-indazole-6-carboxamide]
19 | 61 nM | CC1(NC(=O)c2ccc3c(-c4cc(Cl)cc(Cl)c4)nn(-c4ccc(F)cc4)c3c2)CCS(=O)(=O)C1 (single isomer, unassigned) [Example 157-A, 3-(3,5-dichlorophenyl)-1-(4-fluorophenyl)-N-(3-methyl-1,1-dioxidotetrahydrothiophen-3-yl)-1H-indazole-6-carboxamide]
20 | 28 nM | COc1cc(C#N)cc(-c2nn(-c3ccc(F)cc3)c3cc(C(=O)NC4(C)CCS(=O)(=O)C4)ccc23)c1F (single isomer, unassigned) [Example 161-B, 3-(5-cyano-2-fluoro-3-methoxyphenyl)-1-(4-fluorophenyl)-N-(3-methyl-1,1-dioxidotetrahydrothiophen-3-yl)-1H-indazole-6-carboxamide]
21 | 6.9 nM | CC1(NC(=O)c2ccc3c(-c4cc(C(F)(F)F)ccc4Cl)nn(-c4ccc(F)cc4)c3c2)CCS(=O)(=O)C1 (single isomer, unassigned) [Example 160-A, 3-[2-chloro-5-(trifluoromethyl)phenyl]-1-(4-fluorophenyl)-N-(3-methyl-1,1-dioxidotetrahydrothiophen-3-yl)-1H-indazole-6-carboxamide]
